Assay results reported in patent US10189794B2, “Heteroaryl compounds and uses thereof” (Celgene CAR LLC, priority 2013, dated 2019).

Assays:
[1] = system: Huh7 cells; assay: Cell proliferation, Huh7 (CellTiter Glo); format: cell-based; settings: Homo sapiens, Huh-7; Huh7; 120 hr; read-out: Cell Proliferation GI50 (nM) HUH
Description: The growth inhibition (GI50) values were determined by Graph Pad Prism.

[2] = system: MDA-MB-453 cells; assay: Cell proliferation, MDA-MB-453 (CellTiter Glo); format: cell-based; settings: Homo sapiens; MDA-MB-453; 96 hr; read-out: Cell Proliferation GI50 (nM) MDA
Description: For both MDA-MB-453 and Huh7 cells the starting density was 5000 cells per well. The cells were allowed to settle down for 4 hr and were then treated with 5, 1.25, 0.31, 0.078, 0.020 or 0.005 μM of test compound for: 96 hr for MDA-MB-453 and 120 hr for Huh7 cells. Cell viability was determined by CellTiter Glo (Promega, Madison, Wis.) and the results were converted to cell numbers using a standard curve. The growth inhibition (GI50) values were determined by Graph Pad Prism.
The results of these experiments show the ability of compounds to inhibit cell growth in FGFR dependant cell lines and are depicted in Table 8, in the columns titled “Cell Proliferation GI50 (nM)”. MDA-MB-453 cell results fall under the heading “MDA” and Huh7 cell results fall under the heading “Huh.”

C=CC(=O)NC1CCCCC1Nc1ncc2c(n1)N(Cc1cccc(NC(=O)CC)c1)C(=O)N(c1c(Cl)c(OC)cc(OC)c1Cl)C2 (racemic) [I-8]
GI50 [1]: 101 to 500 nM
GI50 [2]: < 100 nM

C=CC(=O)NC1CCCCC1Nc1ncc2c(n1)N(C)C(=O)N(c1c(Cl)c(OC)cc(OC)c1Cl)C2 (racemic) [I-19]
GI50 [1]: 501 to 999 nM
GI50 [2]: 101 to 500 nM

C=CC(=O)NC1CCCCC1Nc1ncc2c(n1)N(CCF)C(=O)N(c1c(Cl)c(OC)cc(OC)c1Cl)C2 (racemic) [I-106]
GI50 [1]: > 1000 nM

C=CC(=O)NC1CN(C)CC1Nc1ncc2c(n1)N(C)C(=O)N(c1c(Cl)c(OC)cc(OC)c1Cl)C2 (racemic) [I-138]
GI50 [1]: > 1000 nM

C=CC(=O)NC1CN(C(C)=O)CC1Nc1ncc2c(n1)N(C)C(=O)N(c1c(Cl)c(OC)cc(OC)c1Cl)C2 (racemic) [I-139]
GI50 [1]: 501 to 999 nM

C=CC(=O)NC1CN(C2CCN(C)CC2)CC1Nc1ncc2c(n1)N(C)C(=O)N(c1c(Cl)c(OC)cc(OC)c1Cl)C2 (racemic) [I-154]
GI50 [1]: > 1000 nM

C=CC(=O)Nc1cc(C(F)(F)F)ccc1Nc1ncc2c(n1)N(Cc1ccccc1)C(=O)N(c1c(Cl)c(OC)cc(OC)c1Cl)C2 [I-6]
GI50 [1]: 101 to 500 nM
GI50 [2]: < 100 nM

C=CC(=O)Nc1ccccc1Nc1ncc2c(n1)N(C1CC1)C(=O)N(c1c(Cl)c(OC)cc(OC)c1Cl)C2 [I-23]
GI50 [2]: < 100 nM

C=CC(=O)Nc1ccccc1Nc1ncc2c(n1)N(Cc1ccc(Cl)c(OC)c1)C(=O)N(c1c(Cl)c(OC)cc(OC)c1Cl)C2 [I-24]
GI50 [2]: < 100 nM

C=CC(=O)Nc1cc(N2CCCCC2)ccc1Nc1ncc2c(n1)N(C)C(=O)N(c1cc(OC)cc(OC)c1)C2 [I-31]
GI50 [2]: 101 to 500 nM

C=CCN1C(=O)N(c2cc(OC)cc(OC)c2)Cc2cnc(Nc3ccccc3NC(=O)C=C)nc21 [I-32]
GI50 [2]: 501 to 999 nM

C=CC(=O)Nc1ccccc1Nc1ncc2c(n1)N(CC(O)CO)C(=O)N(c1cc(OC)cc(OC)c1)C2 (stereo not drawn) [I-33]
GI50 [1]: > 1000 nM

C=CC(=O)Nc1ccccc1Nc1ncc2c(n1)N(C1CC1)C(=O)N(c1cc(OC)cc(OC)c1)C2 [I-34]
GI50 [2]: 501 to 999 nM

C=CC(=O)Nc1ccccc1Nc1ncc2c(n1)N(C1CCCN(C(=O)OC(C)(C)C)C1)C(=O)N(c1cc(OC)cc(OC)c1)C2 (stereo not drawn) [I-36]
GI50 [1]: > 1000 nM

C=CC(=O)Nc1cc(C)ccc1Nc1ncc2c(n1)N(C)C(=O)N(c1cc(OC)cc(OC)c1)C2 [I-41]
GI50 [1]: > 1000 nM

C=CC(=O)Nc1cc(C(F)(F)F)ccc1Nc1ncc2c(n1)N(C)C(=O)N(c1cc(OC)cc(OC)c1)C2 [I-42]
GI50 [1]: > 1000 nM

C=CC(=O)Nc1ccccc1Nc1ncc2c(n1)N(C1CCCNC1)C(=O)N(c1cc(OC)cc(OC)c1)C2 (stereo not drawn) [I-43]
GI50 [1]: 101 to 500 nM

C=CC(=O)Nc1ccccc1Nc1ncc2c(n1)N(CC#N)C(=O)N(c1cc(OC)cc(OC)c1)C2 [I-48]
GI50 [1]: > 1000 nM
GI50 [2]: 501 to 999 nM

C=CC(=O)Nc1ccc(C(F)(F)F)cc1Nc1ncc2c(n1)N(C)C(=O)N(c1cc(OC)cc(OC)c1)C2 [I-50]
GI50 [1]: > 1000 nM

C=CC(=O)Nc1ccccc1Nc1ncc2c(n1)N(Cc1cscn1)C(=O)N(c1cc(OC)cc(OC)c1)C2 [I-64]
GI50 [1]: > 1000 nM
GI50 [2]: 101 to 500 nM

C=CS(=O)(=O)Nc1ccccc1Nc1ncc2c(n1)N(C)C(=O)N(c1cc(OC)cc(OC)c1)C2 [I-67]
GI50 [2]: 501 to 999 nM

C=CC(=O)Nc1ccccc1Nc1ncc2c(n1)N(C)C(=O)N(c1cc(OC)cc(OC)c1Cl)C2 [I-75]
GI50 [2]: 101 to 500 nM

C=CC(=O)Nc1cc(-c2cnn(C)c2)ccc1Nc1ncc2c(n1)N(C)C(=O)N(c1cc(OC)cc(OC)c1)C2 [I-77]
GI50 [2]: 101 to 500 nM

C=CC(=O)Nc1ccc(-c2nccs2)cc1Nc1ncc2c(n1)N(C)C(=O)N(c1cc(OC)cc(OC)c1)C2 [I-78]
GI50 [2]: 101 to 500 nM

C=CC(=O)N[C@H]1CCCC[C@H]1Nc1ncc2c(n1)N(Cc1ccccc1)C(=O)N(c1c(Cl)c(OC)cc(OC)c1Cl)C2 [I-82]
GI50 [2]: < 100 nM

C=CC(=O)Nc1ccccc1Nc1ncc2c(n1)N(C)C(=O)N(c1c(Cl)cccc1Cl)C2 [I-83]
GI50 [1]: > 1000 nM
GI50 [2]: 501 to 999 nM

C=CC(=O)Nc1ccccc1Nc1ncc2c(n1)N(Cc1cscn1)C(=O)N(c1c(Cl)c(OC)cc(OC)c1Cl)C2 [I-86]
GI50 [2]: < 100 nM

C=CC(=O)Nc1ccccc1Nc1ncc2c(n1)N(Cc1cccc(C#N)c1)C(=O)N(c1cc(OC)cc(OC)c1)C2 [I-90]
GI50 [2]: 101 to 500 nM

C=CC(=O)Nc1ccccc1Nc1ncc2c(n1)N(Cc1nccs1)C(=O)N(c1c(Cl)c(OC)cc(OC)c1Cl)C2 [I-91]
GI50 [2]: < 100 nM

C=CC(=O)N[C@H]1CCCC[C@H]1Nc1ncc2c(n1)N(Cc1nccs1)C(=O)N(c1c(Cl)c(OC)cc(OC)c1Cl)C2 [I-92]
GI50 [2]: 101 to 500 nM

C=CC(=O)Nc1ccccc1Nc1ncc2c(n1)N(CCF)C(=O)N(c1cc(OC)cc(OC)c1)C2 [I-102]
GI50 [1]: > 1000 nM

C=CC(=O)Nc1ccccc1Nc1ncc2c(n1)N(C)C(=O)N(c1cc(OC)cc(OC)c1F)C2 [I-108]
GI50 [2]: 101 to 500 nM

C=CC(=O)Nc1ccccc1Nc1ncc2c(n1)N(CC1CC1)C(=O)N(c1cc(OC)cc(OC)c1F)C2 [I-109]
GI50 [2]: < 100 nM

C=CC(=O)NC1CCCCC1Nc1ncc2c(n1)N(CC(F)F)C(=O)N(c1c(F)c(OC)cc(OC)c1F)C2 (stereo not drawn) [I-115]
GI50 [1]: > 1000 nM

C=CC(=O)Nc1nn(C)cc1Nc1ncc2c(n1)N(C)C(=O)N(c1c(Cl)c(OC)cc(OC)c1Cl)C2 [I-117]
GI50 [1]: 101 to 500 nM

C=CC(=O)Nc1ccccc1Nc1ncc2c(n1)NC(=O)N(c1cc(OC)cc(OC)c1)C2 [I-125]
GI50 [1]: > 1000 nM

C=CC(=O)Nc1cc(N2CCN(C(=O)CCCC(=O)NCCCOCCOCCOCCCNC(=O)CCCC[C@@H]3SC[C@@H]4NC(=O)N[C@@H]43)CC2)ccc1Nc1ncc2c(n1)N(C)C(=O)N(c1c(Cl)c(OC)cc(OC)c1Cl)C2 [I-127]
GI50 [1]: > 1000 nM

C=CC(=O)NC1CCCCC1Nc1ncc2c(n1)N(Cc1ccn(C)c(=O)c1)C(=O)N(c1c(Cl)c(OC)cc(OC)c1Cl)C2 (stereo not drawn) [I-132]
GI50 [1]: > 1000 nM

C=CC(=O)Nc1ccccc1Nc1ncc2c(n1)N(Cc1ccnc(N)c1)C(=O)N(c1c(Cl)c(OC)cc(OC)c1Cl)C2 [I-135]
GI50 [2]: < 100 nM

C=CC(=O)Nc1ccccc1Nc1ncc2c(n1)N(Cc1ccn(C)n1)C(=O)N(c1c(Cl)c(OC)cc(OC)c1Cl)C2 [I-136]
GI50 [2]: < 100 nM

C=CC(=O)NC1CCCCC1Nc1ncc2c(n1)N(Cc1csc(C)n1)C(=O)N(c1c(Cl)c(OC)cc(OC)c1Cl)C2 (stereo not drawn) [I-137]
GI50 [1]: 501 to 999 nM

C=CC(=O)N[C@H]1COCC[C@H]1Nc1ncc2c(n1)N(C)C(=O)N(c1c(Cl)c(OC)cc(OC)c1Cl)C2 [I-140]
GI50 [1]: 501 to 999 nM

C=CC(=O)Nc1cc(-c2nnn(C)n2)ccc1Nc1ncc2c(n1)N(C)C(=O)N(c1cc(OC)cc(OC)c1)C2 [I-146]
GI50 [1]: > 1000 nM

C=CC(=O)Nc1cc(C(=O)NC2CCN(C)CC2)ccc1Nc1ncc2c(n1)N(C)C(=O)N(c1cc(OC)cc(OC)c1)C2 [I-151]
GI50 [1]: > 1000 nM

C=CC(=O)Nc1cc(-c2nnnn2C)ccc1Nc1ncc2c(n1)N(C)C(=O)N(c1c(Cl)c(OC)cc(OC)c1Cl)C2 [I-153]
GI50 [1]: 101 to 500 nM

C=CC(=O)N[C@@H]1COC[C@@H]1Nc1ncc2c(n1)N(C)C(=O)N(c1c(Cl)c(OC)cc(OC)c1Cl)C2 [I-185]
GI50 [1]: > 1000 nM

C=CC(=O)N[C@H]1COC[C@H]1Nc1ncc2c(n1)N(C)C(=O)N(c1c(Cl)c(OC)cc(OC)c1Cl)C2 [I-186]
GI50 [1]: < 100 nM

C=CC(=O)NC1COCC1Nc1ncc2c(n1)N(C)C(=O)N(c1c(F)c(OC)cc(OC)c1F)C2 (stereo not drawn) [I-198]
GI50 [1]: 101 to 500 nM

C=CC(=O)NC1CN(c2ccncn2)CC1Nc1ncc2c(n1)N(C)C(=O)N(c1c(Cl)c(OC)cc(OC)c1Cl)C2 (stereo not drawn) [I-201]
GI50 [1]: 501 to 999 nM

C=CC(=O)NC1COCC1Nc1ncc2c(n1)N(C)C(=O)N(c1c(F)c(OC)cc(OC)c1Cl)C2 (stereo not drawn) [I-206]
GI50 [1]: < 100 nM

C=CC(=O)NC1COCC1Nc1ncc2c(n1)N(Cc1cscn1)C(=O)N(c1c(Cl)c(OC)cc(OC)c1Cl)C2 (stereo not drawn) [I-210]
GI50 [1]: 101 to 500 nM

C=CC(=O)NC1COCC1Nc1ncc2cc(-c3c(Cl)c(OC)cc(OC)c3Cl)c(=O)n(C)c2n1 (stereo not drawn) [I-211]
GI50 [1]: < 100 nM

C=CC(=O)NC1COCC1Nc1ncc2c(n1)N(CC1CC1)C(=O)N(c1c(Cl)c(OC)cc(OC)c1Cl)C2 (stereo not drawn) [I-212]
GI50 [1]: < 100 nM

C=CC(=O)NC1COCC1Nc1ncc2c(n1)N(Cc1cnn(C)c1)C(=O)N(c1c(Cl)c(OC)cc(OC)c1Cl)C2 (stereo not drawn) [I-213]
GI50 [1]: < 100 nM

C=CC(=O)NC1COCC1Nc1ncc2c(n1)N(Cc1ccn(C)n1)C(=O)N(c1c(Cl)c(OC)cc(OC)c1Cl)C2 (stereo not drawn) [I-215]
GI50 [1]: 101 to 500 nM

C=CC(=O)NC1COCC1Nc1ncc2c(n1)N(Cc1cc[nH]n1)C(=O)N(c1c(Cl)c(OC)cc(OC)c1Cl)C2 (stereo not drawn) [I-216]
GI50 [1]: 101 to 500 nM

C=CC(=O)NC1COCC1Nc1ncc2c(n1)N(CC)C(=O)N(c1c(Cl)c(OC)cc(OC)c1Cl)C2 (stereo not drawn) [I-217]
GI50 [1]: < 100 nM

C=CC(=O)N[C@H]1CCCC[C@H]1Nc1ncc2cc(-c3c(Cl)c(OC)cc(OC)c3Cl)c(=O)n(C)c2n1 [I-223]
GI50 [1]: 101 to 500 nM

C=CC(=O)N[C@H]1CCCC[C@H]1Nc1ncc2c(n1)N(C)C(=O)N(c1c(F)c(OC)cc(OC)c1Br)C2 [I-228]
GI50 [1]: 101 to 500 nM

COc1cc(OC)c(Cl)c(N2Cc3cnc(Nc4ccccc4)nc3N(C)C2=O)c1Cl [I-238]
GI50 [1]: < 100 nM

C=CC(=O)N[C@@H]1COC[C@@H]1Nc1ncc2cc(-c3c(Cl)c(OC)cc(OC)c3Cl)c(=O)n(C)c2n1 [I-240]
GI50 [1]: > 1000 nM

C=CC(=O)N[C@H]1COC[C@H]1Nc1ncc2cc(-c3c(Cl)c(OC)cc(OC)c3Cl)c(=O)n(C)c2n1 [I-241]
GI50 [1]: < 100 nM

C=CC(=O)Nc1cc(OC)ccc1Nc1ncc2cc(-c3c(Cl)c(OC)cc(OC)c3Cl)c(=O)n(C)c2n1 [I-242]
GI50 [1]: < 100 nM
